Assay results from patent US11008346B2, “Beta-lactamase inhibitors” (priority 2014, dated 2021).

Assays:
[1] = test system: E. coli ESBL4 expressing CTX-M-15; experiment: broth microdilution MIC, E. coli CTX-M-15; assay type: cell-based; settings: for MIC of exemplary compounds in presence of fixed β-lactams, E. coli ESBL4 CTX-M-15: Fixed CAZ (ceftazidime) 4 μg/mL
Text: (§1) To determine the ability of test compounds to potentiate the inhibition of the growth of bacterial strains that produce beta-lactamase enzymes, classic cell based broth microdilution MIC assays were employed. Six bacteria strains producing beta-lactamase enzymes were used: E. coli expressing the Class A Extended Spectrum Beta-Lactamase (ESBL) CTX-M-15, E. cloacae expressing the Class C P99, K. pneumoniae expressing the Class A carbapenemase KPC-3, P. aeruginosa expressing the Class B carbapenemase VIM-2, K pneumoniae expressing the class A carbapenemase KPC-2 and the class B carbapenemase VIM-4, and S. aureus producing the Class A penicillinase PC-1. The assay was conducted in Cation Adjusted Mueller Hinton Broth (CAMHB, BD #212322, BD Diagnostic Systems, Sparks, Md.). Bacteria strains were grown for 3-5 hours in CAMBH broth. Test compounds were added to a microtiter plate in 2-fold serial dilutions in CAMHB in a final concentration range of 32 μg/mL to 0.25 μg/ml. An overlay of CAMHB containing a Beta-lactam was added to the compounds at a final static concentration of 4 μg/ml. […] In addition to the titration of test compounds the MICs of a panel of control beta-lactams is also tested to ensure the strains are behaving consistently from test to test. Once the test compound and antibiotics are added the plates can be inoculated according to CLSI broth microdilution method. After inoculation the plates are incubated for 16-20 hours at 37° C., then the Minimal Inhibitory Concentration (MIC) of the test compound is determined visually.
(§2) Using the methodology described above, examples of the current invention were evaluated for their ability to inhibit the growth of β-lactamase-producing bacteria in the presence of a β-lactam antibiotic.
(§3) Representative results are shown in Table 4 where A represents an MIC of the fixed β-lactam antibiotic in the presence of >32 µg/mL of a β-lactamase inhibitor of exemplary compounds, B represents the MIC in the presence of between 8 and 32 µg/mL of a β-lactamase inhibitor of exemplary compounds, and C represents the MIC in the presence of ≤4 µg/mL of a β-lactamase inhibitor of exemplary compounds. NT=Not Tested.

[2] = test system: E. cloacae 144200 expressing Class C P99 AmpC; experiment: broth microdilution MIC, E. cloacae P99; assay type: cell-based; settings: for MIC of exemplary compounds in presence of fixed β-lactams, E. cl. 144200 p99 AmpC: Fixed CAZ (ceftazidime) 4 μg/mL
Text: as §1, §2, §3

[3] = target: T1, SHV-5 β-lactamase (Klebsiella pneumoniae, UniProt P0A3M1); experiment: β-lactamase enzyme inhibition, SHV-5; assay type: biochemical
T1 construct: made in house; host or cells: E. coli BL21(DE3)
T1 sequence (P0A3M1 22-286): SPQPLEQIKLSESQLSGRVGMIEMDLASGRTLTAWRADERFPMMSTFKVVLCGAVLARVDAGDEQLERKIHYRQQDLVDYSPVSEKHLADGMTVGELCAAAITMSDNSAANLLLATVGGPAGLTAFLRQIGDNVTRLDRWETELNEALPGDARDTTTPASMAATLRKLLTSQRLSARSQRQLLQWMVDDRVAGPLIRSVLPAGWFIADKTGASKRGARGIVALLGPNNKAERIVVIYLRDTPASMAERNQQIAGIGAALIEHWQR
Method: (§4) For SHV-5, Kpc-2, p99AmpC and OXA-1 β-lactamases, E. coli BL21(DE3) bacterial cells carrying expression plasmids (expressed as native untagged proteins) for the individual β-lactamases were grown in 1 L of Superbroth (Teknova Inc. Hollister, Calif.) supplemented with 100 μg/ml kanamycin selection and 1×5052 (0.5% glycerol, 0.05% glucose and 0.2% α-lactose) at 35° C. for 18-20 hours. Cells were harvested by centrifugation (4,000×g, 4° C., 20 min), resuspended in 50 ml of 10 mM HEPES pH 7.5 ( 1/20 of the initial volume). The cells were lysed by sonication (5 pulses of 45 seconds) at 45 W on ice. The lysates were clarified by centrifugation at 10,000×g for 40 minutes at 4° C. Samples were diluted 5-fold in 50 mM sodium acetate pH 5.0, stored overnight at 4° C., after which they were centrifuged at 10,000×g for 30 minutes to clarify, and filtered through 0.45 μm filters. The samples were loaded onto a 5 ml Capto S sepharose cation exchange column (GE Healthcare) pre-equilibrated with 50 mM sodium acetate pH 5.0. The column was washed with 5 column volumes of 50 mM sodium acetate pH 5.0 to wash out unbound protein and a linear gradient of NaCl (0 to 500 mM) was used to elute the protein (over 16 CV) from the column. Fractions were assayed for […] activity using Centa (Calbiochem, Gibbstown, N.J.) or Nitrocefin (EMD Millipore chemicals, Darmstadt, Germany) as a reporter β-lactamase substrate for activity in the isolated fractions. Active fractions were pooled, concentrated and further purified by gel filtration chromatography on a Superdex 75 prep grade gel filtration column (GE Healthcare, Piscataway, N.J.) pre-equilibrated in 50 mM Hepes pH 7.5, 150 mM NaCl. Active fractions were pooled, concentrated, and quantitated by BCA protein determination (Thermo Scientific, Rockford, Ill.), dialyzed into PBS and frozen at −80° C. in 20% glycerol until use.
(§5) An equal volume of diluted enzyme stock was added, and the plates were incubated at 37° C. for 15 min. Nitrocefin was used as substrate for p99 AmpC, VIM-2 and OXA-1 and dispensed into each well at a final concentration of 100 μM. Absorbance at 486 nm was immediately monitored for 10 min using a Biotek Powerwave XS2 microplate spectrophotometer using the GEN5 software package (Biotek Instruments, Winooski Vt.). In an analogous fashion, imipenem was used as substrate for KPC-2 and Cefotaxime was used for SHV-5, while changes in absorbance upon hydrolysis of the β-lactam ring were monitored at 300 nm and 260 nm respectively in UV-transparent 96-well microtiter assay plates. Maximum rates of hydrolysis were compared to those in control wells (without inhibitors), and percentages of enzyme inhibition were calculated for each concentration of inhibitor. The concentration of inhibitor needed to reduce the initial rate of hydrolysis of substrate by 50% (IC50) was calculated as the residual activity of β-lactamase at 486 nm using GraFit version 7 kinetics software package (Erithacus Software, Surrey, UK).
(§6) Using the methodology described above, examples of the current invention were evaluated for their ability to inhibit β-lactamase enzymes from all four Ambler classifications (A through D). […] NT=Not tested.

[4] = target: T2, KPC-2 β-lactamase (Klebsiella pneumoniae, UniProt Q9F663); experiment: β-lactamase enzyme inhibition, KPC-2; assay type: biochemical; settings: imipenem substrate, 300 nm; 15 min at 37° C. preincubation; read-out: IC50 KPC-2 (Class A)
T2 construct: made in house; host or cells: E. coli BL21(DE3)
T2 sequence (Q9F663 25-293, looked up): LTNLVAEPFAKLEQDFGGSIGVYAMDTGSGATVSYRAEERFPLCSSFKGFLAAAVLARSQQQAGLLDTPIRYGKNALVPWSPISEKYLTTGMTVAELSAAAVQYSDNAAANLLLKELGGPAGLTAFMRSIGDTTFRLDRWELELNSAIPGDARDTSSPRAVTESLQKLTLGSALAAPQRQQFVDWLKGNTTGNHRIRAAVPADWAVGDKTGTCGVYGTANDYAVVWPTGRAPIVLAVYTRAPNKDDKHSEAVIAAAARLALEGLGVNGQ
Method: as §4, §5, §6

[5] = target: T3, VIM-2 metallo β-lactamase (Pseudomonas aeruginosa, UniProt Q9K2N0); experiment: β-lactamase enzyme inhibition, VIM-2; assay type: biochemical; settings: Nitrocefin 100 μM, 486 nm; 15 min at 37° C. preincubation; read-out: IC50 VIM-2 (Class B)
T3 construct: made in house; host or cells: E. coli BL21(DE3)
Method: For VIM-2 metallo β-lactamase, the procedure was identical with the following exceptions, first the protein was not pH adjusted to pH 5 with 50 mM sodium acetate. Second, the chromatography step was changed to a 5 ml Q sepharose anion exchange column pre-equilibrated with 50 mM Hepes pH 7.5, and elution of the protein was achieved by a linear gradient of NaCl (0-600 mM). Finally, the VIM-2 purification required a second run (3rd step) on the Q sepharose anion exchange column to achieve acceptable purity (>90%).
as §5, §6

[6] = target: T4, p99 AmpC β-lactamase (Enterobacter cloacae, UniProt P05364); experiment: β-lactamase enzyme inhibition, p99 AmpC; assay type: biochemical
T4 construct: made in house; host or cells: E. coli BL21(DE3)
T4 sequence (P05364 21-381): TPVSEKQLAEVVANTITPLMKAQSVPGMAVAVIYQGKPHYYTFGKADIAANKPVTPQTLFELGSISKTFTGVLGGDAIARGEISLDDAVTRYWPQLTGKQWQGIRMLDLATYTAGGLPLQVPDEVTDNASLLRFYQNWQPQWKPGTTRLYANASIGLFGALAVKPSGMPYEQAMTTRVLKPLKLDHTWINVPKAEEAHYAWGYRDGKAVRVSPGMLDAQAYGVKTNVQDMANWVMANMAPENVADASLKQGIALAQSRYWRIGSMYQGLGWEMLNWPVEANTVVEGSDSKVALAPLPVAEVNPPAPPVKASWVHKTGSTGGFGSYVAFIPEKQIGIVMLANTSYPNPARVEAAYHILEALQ
Method: as §4, §5
Using the methodology described above, examples of the current invention were evaluated for their ability to inhibit β-lactamase enzymes from all four Ambler classifications (A through D).

[7] = test system: K. pneumoniae 156319 expressing KPC-3; experiment: broth microdilution MIC, K. pneumoniae KPC-3; assay type: cell-based; settings: Fixed Mero (meropenem) 4 μg/mL
Text: as §1, §2, §3

[8] = test system: K. pneumoniae A-1797 expressing KPC-2 and VIM-4; experiment: broth microdilution MIC, K. pneumoniae KPC-2 and VIM-4; assay type: cell-based; settings: Fixed Mero (meropenem) 4 μg/mL
Text: as §1, §2, §3

Row | Compound | MIC ([1]; Escherichia coli, read-out: MIC alone) [µg/mL] | MIC alone ([2]; partner antibiotic alone, E. cloacae expressing Class C P99) [µg/mL] | IC50 [3] [nM] | IC50 [4] [nM] | IC50 [5] [nM] | IC50 [6] [nM] | MIC of exemplary compounds in presence of fixed β-lactams, E. coli ESBL4 CTX-M-15 [1] | MIC of exemplary compounds in presence of fixed β-lactams, E. cl. 144200 p99 AmpC [2] | MIC of exemplary compounds in presence of fixed β-lactams, K.P. 156319 KPC-3 [7] | MIC of exemplary compounds in presence of fixed β-lactams, K.P. A-1797 KPC-2 VIM-4 [8]
1 | CC(C)(O/N=C(\C(=O)N[C@@H]1C(=O)N2C(C(=O)[O-])=C(C[n+]3ccccc3)CS[C@H]12)c1csc(N)n1)C(=O)O [Ceftazidime, ceftazidime, reference compound] | > 128 | 128 |  |  |  |  |  |  |  | 
2 | NS(=O)(=O)CCCC(=O)N[C@H]1Cc2cccc(C(=O)O)c2OB1O [Example 53, (R)-2-Hydroxy-3-(4-sulfamoyl-butyrylamino)-3,4-dihydro-2H-benzo[e][1,2]oxaborinine-8-carboxylic acid] |  |  | < 100 | < 100 | 10000 to 100000 | < 100 | C (C represents the MIC in the presence of ≤4 g/mL of a β-lactamase inhibitor) | C (C represents the MIC in the presence of ≤4 g/mL of a β-lactamase inhibitor) | C (C represents the MIC in the presence of ≤4 g/mL of a β-lactamase inhibitor) | B (B represents the MIC in the presence of between 8 and 32 g/mL of a β-lactamase inhibitor)
3 | CS(=O)(=O)NCCCC(=O)N[C@H]1Cc2cccc(C(=O)O)c2OB1O [Example 57, (R)-2-Hydroxy-3-(4-methanesulfonylamino-butyrylamino)-3,4-dihydro-2H-benzo[e][1,2]oxaborinine-8-carboxylic acid] |  |  | < 100 | < 100 | 1000 to 10000 | < 100 | C (C represents the MIC in the presence of ≤4 g/mL of a β-lactamase inhibitor) |  | C (C represents the MIC in the presence of ≤4 g/mL of a β-lactamase inhibitor) | B (B represents the MIC in the presence of between 8 and 32 g/mL of a β-lactamase inhibitor)
4 | CNS(=O)(=O)CCCC(=O)N[C@H]1Cc2cccc(C(=O)O)c2OB1O [Example 58, (R)-2-Hydroxy-3-(4-methylsulfamoyl-butyrylamino)-3,4-dihydro-2H-benzo[e][1,2]oxaborinine-8-carboxylicacid] |  |  | < 100 | < 100 | 1000 to 10000 | < 100 | C (C represents the MIC in the presence of ≤4 g/mL of a β-lactamase inhibitor) |  | C (C represents the MIC in the presence of ≤4 g/mL of a β-lactamase inhibitor) | B (B represents the MIC in the presence of between 8 and 32 g/mL of a β-lactamase inhibitor)
5 | CS(=O)(=O)CCCC(=O)N[C@H]1Cc2cccc(C(=O)O)c2OB1O [Example 59, (R)-2-Hydroxy-3-(4-methanesulfonyl-butyrylamino)-3,4-dihydro-2H-benzo[e][1,2]oxaborinine-8-carboxylic acid] |  |  | < 100 | < 100 | 1000 to 10000 | < 100 | C (C represents the MIC in the presence of ≤4 g/mL of a β-lactamase inhibitor) |  | C (C represents the MIC in the presence of ≤4 g/mL of a β-lactamase inhibitor) | B (B represents the MIC in the presence of between 8 and 32 g/mL of a β-lactamase inhibitor)
6 | CC(O)CCC(=O)N[C@H]1Cc2cccc(C(=O)O)c2OB1O (stereo partly drawn) [Example 63, (R)-2-Hydroxy-3-(4-hydroxy-pentanoylamino)-3,4-dihydro-2H-benzo[e][1,2]oxaborinine-8-carboxylic acid] |  |  |  |  |  |  | C (C represents the MIC in the presence of ≤4 g/mL of a β-lactamase inhibitor) | C (C represents the MIC in the presence of ≤4 g/mL of a β-lactamase inhibitor) | C (C represents the MIC in the presence of ≤4 g/mL of a β-lactamase inhibitor) | B (B represents the MIC in the presence of between 8 and 32 g/mL of a β-lactamase inhibitor)
7 | O=C(Cc1ccncc1)N[C@H]1Cc2cccc(C(=O)O)c2OB1O [Example 65, (R)-2-Hydroxy-3-(2-pyridin-4-yl-acetylamino)-3,4-dihydro-2H-benzo[e][1,2]oxaborinine-8-carboxylic acid] |  |  | < 100 | < 100 |  | < 100 | C (C represents the MIC in the presence of ≤4 g/mL of a β-lactamase inhibitor) | C (C represents the MIC in the presence of ≤4 g/mL of a β-lactamase inhibitor) | C (C represents the MIC in the presence of ≤4 g/mL of a β-lactamase inhibitor) | C (C represents the MIC in the presence of ≤4 g/mL of a β-lactamase inhibitor)
